Assay results reported in US9944607B2, “Thiohydantoin derivatives and uses thereof” (Whitehead Institute for Biomedical Research, priority 2012, dated 2018).
≈ marks a conversion by molar mass, not a printed value. Where two headings read alike, the source gives them in different places.

Experiments:
Candida albicans CaCi-2 = experiment: Primary assay: C. albicans CaCi-2 growth inhibition (Alamar Blue); assay type: cell-based; details: n = 3, 48 hours, tested up to 26 μM; for IC50: read-out: Growth Inhibition Activity, IC50 (μM), C. albicans (n = 3) CaCi-2
Candida albicans CaCi-17 = experiment: Primary assay: C. albicans CaCi-17 growth inhibition (Alamar Blue); assay type: cell-based; details: n = 3, 48 hours, tested up to 26 μM
[1] = test system: NIH-3T3 mammalian fibroblasts; experiment: Counterscreen mammalian cell toxicity assay (Alamar Blue); assay type: cell-based, murine; details: n = 1, 48 hours, tested up to 26 μM
Procedure: Quiescent murine fibroblasts were subjected to incubation with compounds of interest for 48 hours. Subsequent cell viability was determined via measuring Alamar Blue fluorescence.
Procedures • After overnight culture, pin compounds into wells at 100 nL/well using the CyBio CyBi-Well pinning instrument. • Return the plates to the tissue culture incubator and incubate the culture for an additional 48 hours at 37° C. under 5% CO2. • At the completion of this incubation, add Alamar Blue solution diluted 1:40 in PBS to each well (10 μL/well) to achieve a final dilution of 1:200. • Incubate the plates for an additional 2-3 hours at 37° C. under 5% CO2. • Read the Relative Fluorescence Intensity (RFU) of wells on a standard plate reader as a measure of relative cell growth. […] 4.4.

[2] = Solubility in PBS pH 7.4 with 1% DMSO; details: for solubility at 24 h: phosphate buffered saline with 1% DMSO, pH 7.4, aqueous buffer, kinetic from dmso stock
Procedure: Solubility was determined in phosphate buffered saline (PBS) pH 7.4 with 1% DMSO. Each compound was prepared in duplicate at 100 μM in both 100% DMSO and PBS with 1% DMSO. Compounds were allowed to equilibrate at room temperature with a 250 rpm orbital shake for 24 hours. After equilibration, samples were analyzed by UPLC-MS (Waters, Milford, Mass.) with compounds detected by SIR detection on a single quadrupole mass spectrometer. The DMSO samples were used to create a two-point calibration curve to which the response in PBS was fit.

[3] = Table 4, PBS pH 7.4 with 1% DMSO, 24 hours, room temperature

Structure (SMILES): CCCCN1C(=O)N(c2ccc(C)cc2)C2(CCCCC2)C1=S [compound 56604857]
- Growth Inhibition Activity, IC50 (μM), C. albicans (n = 3) CaCi-2 (Candida albicans CaCi-2; Table 6): inactive
- Growth Inhibition Activity, IC50 (μM), C. albicans (n = 3) CaCi-17 (Candida albicans CaCi-17; Table 6): inactive
- IC50 ([1]; Mus musculus, NIH3T3, read-out: Growth Inhibition Activity, IC50 (μM), 3T3 Fibroblasts (n = 1), Table 6): 20.9 µM
- solubility at 24 h [2]: < 1 µM

Structure (SMILES): CCCc1ccc(N2C(=S)N(C(=O)OCC)C(=O)C23CCCCC3)cc1 [compound 56604858]
- IC50 (Candida albicans CaCi-2; Table 4): 6.9 µM
- Growth Inhibition Activity, IC50 (μM), C. albicans (n = 3) CaCi-17 (Candida albicans CaCi-17; Table 4): inactive
- Growth Inhibition Activity, IC50 (μM), 3T3 Fibroblasts (n = 1) ([1]; Table 4): Inactive
- PBS Solubility ([2]; pH 7.4): <1.0 µM

Structure (SMILES): Cc1ccc(N2C(=S)N(C(=O)OC(C)C)C(=O)C23CCCCC3)cc1 [compound 56604859]
- IC50 (Candida albicans CaCi-2; Table 3): 5.9 µM
- Growth Inhibition Activity, IC50 (μM), C. albicans (n = 3) CaCi-17 (Candida albicans CaCi-17; Table 3): inactive
- Growth Inhibition Activity, IC50 (μM), 3T3 Fibroblasts (n = 1) ([1]; Table 3): Inactive
- PBS Solubility ([2]; pH 7.4): <1.0 µM

Structure (SMILES): O=C1NC(=S)N(c2ccc(F)cc2)C12CCCCC2 [compound 56604862]
- Growth Inhibition Activity, IC50 (μM), C. albicans (n = 3) CaCi-2 (Candida albicans CaCi-2; Table 7): inactive
- Growth Inhibition Activity, IC50 (μM), C. albicans (n = 3) CaCi-17 (Candida albicans CaCi-17; Table 7): inactive
- Growth Inhibition Activity, IC50 (μM), 3T3 Fibroblasts (n = 1) ([1]; Table 7): Inactive
- solubility at 24 h [2]: 43 µM (≈ 12 µg/mL)

Structure (SMILES): CCOC(=O)N1C(=S)N(c2ccc(C)cc2)C2(CCCCC2)/C1=N/Cc1ccccc1 [compound 56604867]
- Growth Inhibition Activity, IC50 (μM), C. albicans (n = 3) CaCi-2 (Candida albicans CaCi-2; Table 6): inactive
- Growth Inhibition Activity, IC50 (μM), C. albicans (n = 3) CaCi-17 (Candida albicans CaCi-17; Table 6): inactive
- Growth Inhibition Activity, IC50 (μM), 3T3 Fibroblasts (n = 1) ([1]; Table 6): Inactive
- solubility at 24 h [2]: 26 µM (≈ 11.3 µg/mL)

Structure (SMILES): CCCC(=O)N1C(=O)C2(CCCCC2)N(c2ccc(C)cc2)C1=S [compound 56604869]
- Growth Inhibition Activity, IC50 (μM), C. albicans (n = 3) CaCi-2 (Candida albicans CaCi-2; Table 3): inactive
- Growth Inhibition Activity, IC50 (μM), C. albicans (n = 3) CaCi-17 (Candida albicans CaCi-17; Table 3): inactive
- IC50 ([1]; read-out: Growth Inhibition Activity, IC50 (μM), 3T3 Fibroblasts (n = 1), Table 3): 18.8 µM
- PBS Solubility ([2]; pH 7.4): 2.2 µM

Structure (SMILES): Cc1ccc(N2C(=S)N(C(=O)Oc3ccccc3)C(=O)C23CCCCC3)cc1 [compound 56604875]
- Growth Inhibition Activity, IC50 (μM), C. albicans (n = 3) CaCi-2 (Candida albicans CaCi-2; Table 3): inactive
- Growth Inhibition Activity, IC50 (μM), C. albicans (n = 3) CaCi-17 (Candida albicans CaCi-17; Table 3): inactive
- Growth Inhibition Activity, IC50 (μM), 3T3 Fibroblasts (n = 1) ([1]; Table 3): Inactive
- PBS Solubility ([2]; Table 3, PBS pH 7.4 with 1% DMSO, 24 hours, room temperature): <1.0 µM

Structure (SMILES): Cc1ccc(N2C(=S)NC(=O)C23CCCC3)cc1 [compound 56604876]
- Growth Inhibition Activity, IC50 (μM), C. albicans (n = 3) CaCi-2 (Candida albicans CaCi-2; Table 7): inactive
- Growth Inhibition Activity, IC50 (μM), C. albicans (n = 3) CaCi-17 (Candida albicans CaCi-17; Table 7): inactive
- IC50 ([1]; Mus musculus, NIH3T3, read-out: Growth Inhibition Activity, IC50 (μM), 3T3 Fibroblasts (n = 1), Table 7): 32.6 µM
- solubility at 24 h [2]: 72 µM (≈ 18.7 µg/mL)

Structure (SMILES): CCCCN1C(=O)N(c2ccc(C)cc2)C2(CCCCC2)C1=O [compound 56604877]
- Growth Inhibition Activity, IC50 (μM), C. albicans (n = 3) CaCi-2 (Candida albicans CaCi-2; Table 6): inactive
- Growth Inhibition Activity, IC50 (μM), C. albicans (n = 3) CaCi-17 (Candida albicans CaCi-17; Table 6): inactive
- Growth Inhibition Activity, IC50 (μM), 3T3 Fibroblasts (n = 1) ([1]; Table 6): Inactive
- solubility at 24 h [2]: 64 µM (≈ 20.1 µg/mL)

Structure (SMILES): CCOC(=O)N1C(=O)C2(CCCCC2)N(Cc2ccccc2)C1=S [compound 56604878]
- IC50 (Candida albicans CaCi-2; Table 4): 3.8 µM
- IC50 (Candida albicans CaCi-17; Table 4, read-out: Growth Inhibition Activity, IC50 (μM), C. albicans (n = 3) CaCi-17): 22.8 µM
- Growth Inhibition Activity, IC50 (μM), 3T3 Fibroblasts (n = 1) ([1]; Table 4): Inactive
- PBS Solubility [2, 3]: 7.2 µM

Structure (SMILES): Cc1ccc(N2C(=S)NC(=O)C2(C)C)cc1 [compound 56604879]
- Growth Inhibition Activity, IC50 (μM), C. albicans (n = 3) CaCi-2 (Candida albicans CaCi-2; Table 7): inactive
- Growth Inhibition Activity, IC50 (μM), C. albicans (n = 3) CaCi-17 (Candida albicans CaCi-17; Table 7): inactive
- Growth Inhibition Activity, IC50 (μM), 3T3 Fibroblasts (n = 1) ([1]; Table 7): Inactive
- solubility at 24 h [2]: 55 µM (≈ 12.9 µg/mL)

Structure (SMILES): CCOC(=O)N1C(=O)C2(CCCCC2)N(c2ccc(-c3ccccc3)cc2)C1=S [compound 56604882]
- Growth Inhibition Activity, IC50 (μM), C. albicans (n = 3) CaCi-2 (Candida albicans CaCi-2; Table 4): inactive
- Growth Inhibition Activity, IC50 (μM), C. albicans (n = 3) CaCi-17 (Candida albicans CaCi-17; Table 4): inactive
- IC50 ([1]; read-out: Growth Inhibition Activity, IC50 (μM), 3T3 Fibroblasts (n = 1), Table 4): 9.8 µM
- PBS Solubility [2, 3]: <1.0 µM

Structure (SMILES): Cc1ccc(N2C(=O)NC(=O)C23CCCCC3)cc1 [compound 56604883]
- Growth Inhibition Activity, IC50 (μM), C. albicans (n = 3) CaCi-2 (Candida albicans CaCi-2; Table 7): inactive
- Growth Inhibition Activity, IC50 (μM), C. albicans (n = 3) CaCi-17 (Candida albicans CaCi-17; Table 7): inactive
- Growth Inhibition Activity, IC50 (μM), 3T3 Fibroblasts (n = 1) ([1]; Table 7): Inactive
- solubility at 24 h [2]: 14 µM (≈ 3.62 µg/mL)

Structure (SMILES): Cc1ccc(N2C(=O)C(=O)NC2=S)cc1 [compound 56604884]
- Growth Inhibition Activity, IC50 (μM), C. albicans (n = 3) CaCi-2 (Candida albicans CaCi-2; Table 7): inactive
- Growth Inhibition Activity, IC50 (μM), C. albicans (n = 3) CaCi-17 (Candida albicans CaCi-17; Table 7): inactive
- Growth Inhibition Activity, IC50 (μM), 3T3 Fibroblasts (n = 1) ([1]; Table 7): Inactive
- solubility at 24 h [2]: 21 µM (≈ 4.63 µg/mL)

Structure (SMILES): Cc1ccc(N2C(=S)NC(=O)C23CCOCC3)cc1 [compound 56604885]
- Growth Inhibition Activity, IC50 (μM), C. albicans (n = 3) CaCi-2 (Candida albicans CaCi-2; Table 7): inactive
- Growth Inhibition Activity, IC50 (μM), C. albicans (n = 3) CaCi-17 (Candida albicans CaCi-17; Table 7): inactive
- Growth Inhibition Activity, IC50 (μM), 3T3 Fibroblasts (n = 1) ([1]; Table 7): Inactive
- solubility at 24 h [2]: > 100 µM

Structure (SMILES): Cc1ccc(N2C(=S)N(S(C)(=O)=O)C(=O)C23CCCCC3)cc1 [compound 56604886]
- Growth Inhibition Activity, IC50 (μM), C. albicans (n = 3) CaCi-2 (Candida albicans CaCi-2; Table 3): inactive
- Growth Inhibition Activity, IC50 (μM), C. albicans (n = 3) CaCi-17 (Candida albicans CaCi-17; Table 3): inactive
- Growth Inhibition Activity, IC50 (μM), 3T3 Fibroblasts (n = 1) ([1]; Table 3): Inactive
- PBS Solubility ([2]; pH 7.4): 29 µM

Structure (SMILES): Cc1ccc(N2C(=S)NC(=O)C23CCCCC3)cc1 [compound 56604892]
- Growth Inhibition Activity, IC50 (μM), C. albicans (n = 3) CaCi-2 (Candida albicans CaCi-2; Table 3): inactive
- Growth Inhibition Activity, IC50 (μM), C. albicans (n = 3) CaCi-17 (Candida albicans CaCi-17; Table 3): inactive
- Growth Inhibition Activity, IC50 (μM), 3T3 Fibroblasts (n = 1) ([1]; Table 3): Inactive
- PBS Solubility ([2]; pH 7.4): 7.8 µM

Structure (SMILES): CCOC(=O)N1C(=O)C2(CCC2)N(c2ccc(C)cc2)C1=S [compound 56604894]
- Growth Inhibition Activity, IC50 (μM), C. albicans (n = 3) CaCi-2 (Candida albicans CaCi-2; Table 5): Inactive
- Growth Inhibition Activity, IC50 (μM), C. albicans (n = 3) CaCi-17 (Candida albicans CaCi-17; Table 5): inactive
- Growth Inhibition Activity, IC50 (μM), 3T3 Fibroblasts (n = 1) ([1]; Table 5): Inactive
- PBS Solubility ([2]; pH 7.4): 9.9 µM

Structure (SMILES): CCOC(=O)N1C(=O)C2(CCCCC2)N(C(C)C)C1=S [compound 56604896]
- Growth Inhibition Activity, IC50 (μM), C. albicans (n = 3) CaCi-2 (Candida albicans CaCi-2; Table 4): inactive
- Growth Inhibition Activity, IC50 (μM), C. albicans (n = 3) CaCi-17 (Candida albicans CaCi-17; Table 4): inactive
- Growth Inhibition Activity, IC50 (μM), 3T3 Fibroblasts (n = 1) ([1]; Table 4): Inactive
- PBS Solubility [2, 3]: 12 µM
